Earlier results on one compound are cited in patent EP2566451B1, “PHARMACEUTICAL COMPOSITIONS COMPRISING CEFDITOREN PIVOXIL” (Bilgic, Mahmut, priority 2010, dated 2011).

The conditions of this data set: in water; stated in the background section, approximately.

Turning to `CO/N=C(\C(=O)N[C@@H]1C(=O)N2C(C(=O)OCOC(=O)C(C)(C)C)=C(/C=C\c3scnc3C)CS[C@H]12)c1csc(N)n1` [Cefditoren pivoxil, (6R,7R)-pivaloyloxymethyl 7-[(Z)-2-(2-aminothiazol-4-yl)-2-(methoxyimino)acetamido]-3-[(Z)-2-(4-methylthiazol-5-yl)vinyl]-8-oxo-5-thia-1-azabicyclo[4.2.0]oct-2-ene-2-carboxylate], the water solubility entry was “less than 1 mg/ml”.
